We go through 18 compounds from patent publication US7109332B2, “2,4-dioxo-3-quinazolinylaryl sulfonylureas” (Portola Pharmaceuticals, Inc., priority 2003, dated 2006).

The experiment relates to ADP-induced human platelet aggregation. As to the kind of experiment: Inhibition of ADP-mediated platelet aggregation in vitro (PRP assay). Type of experiment: cell-based. To be noted: 2 μM ADP, 96-well microtiter assay. On the procedure:
I. Inhibition of ADP-Mediated Platelet Aggregation In Vitro
The effect of testing the compound according to the invention on ADP-induced human platelet aggregation is preferably assessed in 96-well microtiter assay (see generally the procedures in Jantzen, H. M. et al. (1999) Thromb. Hemost. 81:111–117). Human venous blood is collected from healthy, drug-free volunteers into ACD (85 mM sodium citrate, 111 mM glucose, 71.4 mM citric acid) containing PGI2 (1.25 ml ACD containing 1.6 μM PGI2/10 ml blood; PGI2 was from Sigma, St. Louis, Mo.). Platelet-rich plasma (PRP) is prepared by centrifugation at 160×g for 20 minutes at room temperature. Washed platelets are prepared by centrifuging PRP for 10 minutes at 730×g and resuspending the platelet pellet in CGS (13 mM sodium citrate, 30 mM glucose, 120 mM NaCl; 2 ml CGS/10 ml original blood volume) containing 1U/ml apyrase (grade V, Sigma, St. Louis, Mo.). After incubation at 37° C. for 15 minutes, the platelets are collected by centrifugation at 730×g for 10 minutes and resuspended at a concentration of 3×10^8 platelets/ml in Hepes-Tyrode's buffer (10 mM Hepes, 138 mM NaCl, 5.5 mM glucose, 2.9 mM KCl, 12 mM NaHCO3, pH 7.4) containing 0.1% bovine serum albumin, 1 mM CaCl2 and 1 mM MgCl2. This platelet suspension is kept >45 minutes at 37° C. before use in aggregation assays.
Inhibition of ADP-dependent aggregation is preferably determined in 96-well flat-bottom microtiter plates using a microtiter plate shaker and plate reader similar to the procedure described by Frantantoni et al., Am. J. Clin. Pathol. 94, 613 (1990). All steps are performed at room temperature. The total reaction volume of 0.2 ml/well includes in Hepes-Tyrodes buffer/0.1% BSA: 4.5×10^7 apyrase-washed platelets, 0.5 mg/ml human fibrinogen (American Diagnostica, Inc., Greenwich, Conn.), serial dilutions of test compounds (buffer for control wells) in 0.6% DMSO. After about 5 minutes preincubation at room temperature, ADP is added to a final concentration of 2 μM which induces submaximal aggregation. Buffer is added instead of ADP to one set of control wells (ADP^− control). The OD of the samples is then determined at 490 nm using a microtiter plate reader (Softmax, Molecular Devices, Menlo Park, Calif.) resulting in the 0 minute reading. The plates are then agitated for 5 min on a microtiter plate shaker and the 5 minute reading is obtained in the plate reader. Aggregation is calculated from the decrease of OD at 490 nm at t=5 minutes compared to t=0 minutes and is expressed as % of the decrease in the ADP control samples after correcting for changes in the unaggregated control samples.
The table below provides activity for selected compounds of the invention, evaluated as described above. In the table below, activity in the PRP assay is provided as follows: +++, IC50<10 μM; ++, 10 μM<IC50<30 μM; and +, IC50>30 μM.
Usually IC50 stands for the concentration that inhibits the measured activity by half. A low value points to greater potency. Take `O=C(NS(=O)(=O)c1ccc(Cl)s1)c1ccc(-n2c(=O)[nH]c3cc(NCc4ccc(F)cc4)ccc3c2=O)cc1F` [Example 113, 4-(7-(4-fluorobenzylamino)-2,4-dioxo-1,2-dihydroquinazolin-3(4H)-yl)-N-(5-chlorothiophen-2-ylsulfonyl)-2-fluorobenzamide]: the IC50 was less than 10 µM.
In turn, `O=C(Nc1ccc(-n2c(=O)[nH]c3cc(NCc4ccc(F)cc4F)ccc3c2=O)cc1)NS(=O)(=O)c1ccc(Cl)s1` [Example 102] registered an IC50 of more than 30 µM.
For `Cc1csc(CNc2ccc3c(=O)n(-c4ccc(NC(=O)NS(=O)(=O)c5ccc(Cl)s5)cc4)c(=O)[nH]c3c2)c1` [Example 53] the value was 10 to 30 µM.
Compound `Cc1cc(NC(=O)NS(=O)(=O)c2cccs2)ccc1-n1c(=O)[nH]c2cc(NCc3ccc(Cl)cc3)ccc2c1=O` [Example 16] registered an IC50 of less than 10 µM.
In the case of `O=C(Nc1ccc(-n2c(=O)[nH]c3cc(NCc4cncs4)ccc3c2=O)cc1)NS(=O)(=O)c1ccc(Cl)s1` [Example 61], the IC50 is 10 to 30 µM.
For `O=C(Nc1ccc(-n2c(=O)[nH]c3cc(NCc4ccc(Cl)s4)ccc3c2=O)cc1)NS(=O)(=O)c1ccc(Cl)s1` [Example 51] the value was less than 10 µM.
The compound `COc1cccc(CNc2ccc3c(=O)n(-c4ccc(NC(=O)NS(=O)(=O)c5ccc(Cl)s5)cc4)c(=O)[nH]c3c2)c1` [Example 41] yielded an IC50 of 10 to 30 µM.
The result for `O=C(Nc1ccc(-n2c(=O)[nH]c3cc(NCc4ccccc4)ccc3c2=O)cc1)NS(=O)(=O)c1ccc(Cl)s1` [Example 3] reads less than 10 µM.
The result for `O=C(Nc1ccc(-n2c(=O)[nH]c3cc(NCc4ccc(Cl)o4)ccc3c2=O)cc1)NS(=O)(=O)c1ccc(Cl)s1` [Example 72] reads 10 to 30 µM; that for `Cc1c(F)cccc1CNc1ccc2c(=O)n(-c3ccc(NC(=O)NS(=O)(=O)c4ccc(Cl)s4)cc3)c(=O)[nH]c2c1` [Example 100], less than 10 µM; that for `Cc1cc(-n2c(=O)[nH]c3cc(NCc4ccc(F)cc4)ccc3c2=O)ccc1NC(=O)NS(=O)(=O)c1ccc(Cl)s1` [Example 5, 1-(4-(7-(4-fluorobenzylamino)-2,4-dioxo-1,2-dihydroquinazolin-3(4H)-yl)-2-methylphenyl)-3-(5-chlorothiophen-2-ylsulfonyl)urea], less than 10 µM.
For `Cn1ccnc1CNc1ccc2c(=O)n(-c3ccc(NC(=O)NS(=O)(=O)c4ccc(Cl)s4)cc3)c(=O)[nH]c2c1` [Example 77] the value was more than 30 µM; for `O=C(Nc1ccc(-n2c(=O)[nH]c3cc(NCc4ccsc4)ccc3c2=O)cc1)NS(=O)(=O)c1ccc(Cl)s1` [Example 57], less than 10 µM; for `Cc1nc(C)c(CNc2ccc3c(=O)n(-c4ccc(NC(=O)NS(=O)(=O)c5ccc(Cl)s5)cc4)c(=O)[nH]c3c2)s1` [Example 65], more than 30 µM.
In the case of `O=C(NS(=O)(=O)c1ccc(Cl)s1)c1ccc(-n2c(=O)[nH]c3cc(NCc4ccc(F)cc4)ccc3c2=O)cc1` [Example 106, 4-(7-(4-fluorobenzylamino)-2,4-dioxo-1,2-dihydroquinazolin-3(4H)-yl)-N-(5-chlorothiophen-2-ylsulfonyl)benzamide], the IC50 is less than 10 µM.
`O=C(Nc1ccc(-n2c(=O)[nH]c3cc(NCc4ccc(F)cc4)ccc3c2=O)cc1)NS(=O)(=O)c1ccc(Cl)s1` [Example 21] showed an IC50 of less than 10 µM.
The compound `O=C(Nc1ccc(-n2c(=O)[nH]c3cc(NCc4nc5ccccc5s4)ccc3c2=O)cc1)NS(=O)(=O)c1ccc(Cl)s1` [Example 94] showed an IC50 of more than 30 µM.
For `O=C(Nc1ccc(-n2c(=O)[nH]c3cc(NCc4ccc(Cl)cc4)ccc3c2=O)cc1)NS(=O)(=O)c1ccc(Cl)s1` [Example 12] the value was less than 10 µM.
